Measurements taken from US8987314B2, “Amide, urea or sulfone amide linked benzothiazole inhibitors of endothelial lipase” (Bristol-Myers Squibb Company, priority 2012, dated 2015).

How the values were obtained:
hepatic lipase (HL) = hepatic lipase (HL) (Homo sapiens (Human), UniProt P11150); experiment: HL assay: hepatic lipase activity with fluorescent substrate A10070 in DMPG vesicles; type: biochemical
Experimental: Endothelial lipase (EL) and hepatic lipase (HL) activities were measured using a fluorescent substrate, A10070, (Invitrogen, CA) doped into an artificial vesicle containing DMPG (Avanti Polar Lipids) as the excipient. Vesicles were prepared by combining 571 μL of 29 mM DMPG in a 1:1 mixture of MeOH and CHCl3 with 2000 μL of 1 mM A10070 in a 1:1 mixture of MeOH and CHCl3. The mixture was dried under nitrogen in multiple vials then resuspended in 20 mL total volume of 50 mM HEPES pH 8.0 buffer containing 50 mM NaCl and 0.2 mM EDTA. The sample was allowed to sit at room temperature for 15 min and then was sonicated 3×4 mins on ice with a Branson Sonicator using duty cycle 1. This preparation provides vesicles with a mole fraction of 0.11 for the FRET substrate.
The enzymatic assay was measured using 384-well white Optiplates. Each well contained 20 μL of assay buffer (50 mM HEPES pH 8.0, 50 mM NaCl and 1 mM CaCl2) and 0.25 μL of a DMSO solution containing a compound of interest. EL or HL (10 μL) was added and allowed to incubate with the compound for 30 min at 37° C. The source of EL was conditioned media obtained from HT-1080 cells that were transformed using RAGE technology (Athersys) to overexpress endogenous EL, and HL was partially purified from conditioned media obtained from COS cells overexpressing HL. The reaction was started by the addition of 10 μL of a 1:10 dilution of vesicles. The final total reaction volume was […]. The reaction rates were measured on a Gemini plate reader with an excitation wavelength of 490 nm and an emission wavelength of 530 nm. Readings were taken over a period of 60 minutes, and the slope between 300 and 900 secs of the readout was used to calculate the rate of the reaction.

Endothelial lipase (EL) = Endothelial lipase (EL) (Homo sapiens (Human), UniProt Q9Y5X9); experiment: EL assay: endothelial lipase activity with fluorescent substrate A10070 in DMPG vesicles; type: biochemical
Endothelial lipase (EL), sequence (Q9Y5X9 21-500): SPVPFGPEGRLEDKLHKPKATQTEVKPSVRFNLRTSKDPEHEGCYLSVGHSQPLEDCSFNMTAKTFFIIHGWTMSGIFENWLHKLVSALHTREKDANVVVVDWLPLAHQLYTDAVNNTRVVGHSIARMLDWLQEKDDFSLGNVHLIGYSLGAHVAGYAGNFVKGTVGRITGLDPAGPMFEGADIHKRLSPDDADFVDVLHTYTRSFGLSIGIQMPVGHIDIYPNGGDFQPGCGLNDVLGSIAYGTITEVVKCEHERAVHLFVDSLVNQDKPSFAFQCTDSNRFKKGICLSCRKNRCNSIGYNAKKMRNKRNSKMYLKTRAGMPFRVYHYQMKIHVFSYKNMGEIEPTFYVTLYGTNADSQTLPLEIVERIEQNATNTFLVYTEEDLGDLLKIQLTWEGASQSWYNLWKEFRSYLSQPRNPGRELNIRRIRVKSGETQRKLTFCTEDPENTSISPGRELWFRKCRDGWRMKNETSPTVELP
Procedure, shortened: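 EL from conditioned medium of HT-1080 cells engineered to overexpress endogenous EL; HL partially purified from conditioned medium of HL-overexpressing COS cells. Enzyme preincubated with compound 30 min at 37° C in 50 mM HEPES pH 8.0, 50 mM NaCl, 1 mM CaCl2; DMPG vesicles carrying FRET substrate (0.11 mole fraction) then added.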

hepatic lipase (HL), sequence (P11150 23-499, species assumed): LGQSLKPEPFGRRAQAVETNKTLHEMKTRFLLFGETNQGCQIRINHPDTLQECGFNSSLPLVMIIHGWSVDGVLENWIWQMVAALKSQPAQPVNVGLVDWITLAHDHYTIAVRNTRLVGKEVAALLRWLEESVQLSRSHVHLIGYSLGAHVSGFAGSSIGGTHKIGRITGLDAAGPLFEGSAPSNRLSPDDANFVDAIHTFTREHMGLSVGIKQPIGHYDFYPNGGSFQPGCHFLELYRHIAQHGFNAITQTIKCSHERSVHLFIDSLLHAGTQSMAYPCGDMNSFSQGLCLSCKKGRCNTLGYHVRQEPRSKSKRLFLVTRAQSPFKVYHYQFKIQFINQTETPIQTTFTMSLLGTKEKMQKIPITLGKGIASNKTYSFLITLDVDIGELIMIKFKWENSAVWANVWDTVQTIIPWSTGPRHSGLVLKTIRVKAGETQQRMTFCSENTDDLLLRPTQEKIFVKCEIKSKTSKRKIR

| IC50 (hepatic lipase (HL)) [µM] | IC50 (Endothelial lipase (EL)) [µM] | SMILES |
| --- | --- | --- |
| < 0.01 | < 0.01 | CS(=O)(=O)C(C(=O)NCCS(N)(=O)=O)c1nc2ccc(-c3cnn(-c4ccc(F)cc4)c3)cc2s1 (stereo not drawn) [Example B74, 2-(6-(1-(4-fluorophenyl)-1H-pyrazol-4-yl)-1,3-benzothiazol-2-yl)-2-(methylsulfonyl)-N-(2-sulfamoylethyl)acetamide] |
| 25 | < 0.01 | NS(=O)(=O)CCNC(=O)C(c1nc2ccc(-c3cnn(CCN4CCOCC4)c3)cc2s1)S(=O)(=O)Cc1ccc(F)cc1 (stereo not drawn) [Example B75, 2-((4-fluorobenzyl)sul-fonyl)-2-(6-(1-(2-(4-morpholinyl)ethyl)-1H-pyrazol-4-yl)-1,3-benzothiazol-2-yl)-N-(2-sulfamoylethyl)acetamide] |
| 0.021 | < 0.01 | CC(C)(C)OC(=O)N1CCC(n2cc(-c3ccc4nc(C(C(=O)NCCS(N)(=O)=O)S(C)(=O)=O)sc4c3)cn2)CC1 (stereo not drawn) [Example B76, tert-butyl 4-(4-(2-(1-(methylsulfonyl)-2-oxo-2-((2-sulfamoyl-ethyl)amino)ethyl)-1,3-benzothiazol-6-yl)-1H-pyrazol-1-yl)-1-piperidinecarboxylate] |
| 2.26 | < 0.01 | NS(=O)(=O)CCNC(=O)C(c1nc2ccc(-c3cnn(CCN4CCOCC4)c3)cc2s1)S(=O)(=O)CC1CC1 (stereo not drawn) [Example B77, 2-[(cyclopropylmethyl)sul-fonyl]-2-(6-{1-[2-(4-morpholinyl)ethyl]-1H-pyrazol-4-yl}-1,3-benzothiazol-2-yl)-N-(2-sulfamoylethyl)acetamide] |
| 0.068 | < 0.01 | CS(=O)(=O)C(C(=O)NCCS(N)(=O)=O)c1nc2ccc(-c3c[nH]nc3C(F)(F)F)cc2s1 (stereo not drawn) [Example B78, 2-(methylsulfonyl)-N-(2-sulfamoylethyl)-2-(6-(3-(trifluoromethyl)-1H-pyrazol-4-yl)-1,3-benzothiazol-2-yl)a-cetamide] |
| < 0.01 | < 0.01 | COc1cccc(-c2ccc3nc(C(C(=O)NCCS(N)(=O)=O)S(C)(=O)=O)sc3c2)c1 (stereo not drawn) [Example B79, 2-(6-(3-methoxyphenyl)-1,3-benzothiazol-2-yl)-2-(methylsulfonyl)-N-(2-sulfamoylethyl)acetamide] |
| < 0.01 | < 0.01 | Cc1nnc(CNC(=O)C(c2nc3cc(C)c(-c4ccc(F)nc4)cc3s2)S(C)(=O)=O)o1 (stereo not drawn) [Example B80, 2-[6-(6-fluoro-3-pyridinyl)-5-methyl-1,3-benzothiazol-2-yl]-N-[(5-methyl-1,3,4-oxadiazol-2-yl)methyl]-2-(methylsulfonyl)acetamide] |
| 0.196 | 0.014 | Cc1nnc(CNC(=O)C(c2nc3cc(C)c(-c4ccc(C(=O)N5CCOCC5)cc4)cc3s2)S(C)(=O)=O)o1 (stereo not drawn) [Example B81, 2-{5-methyl-6-[4-(4-morpholinylcarbonyl)phen-yl]-1,3-benzothiazol-2-yl}-N-[(5-methyl-1,3,4-oxadiazol-2-yl)methyl]-2-(methylsulfonyl)acetamide] |
| 0.177 | 0.085 | Cc1nnc(CNC(=O)C(c2nc3cc(C)c(-c4ccccc4)cc3s2)S(C)(=O)=O)o1 (stereo not drawn) [Example B82, N-((5-methyl-1,3,4-oxadiazol-2-yl)methyl)-2-(5-methyl-6-phenyl-1,3-benzothiazol-2-yl)-2-(methylsulfonyl)acetamide] |
| 0.229 | 0.077 | Cc1nnc(CNC(=O)C(c2nc3cc(C)c(-c4cnn(CCN5CCOCC5)c4)cc3s2)S(C)(=O)=O)o1 (stereo not drawn) [Example B83, 2-(5-methyl-6-(1-(2-(4-morpholinyl)ethyl)-1H-pyrazol-4-yl)-1,3-benzothiazol-2-yl)-N-((5-methyl-1,3,4-oxadiazol-2-yl)methyl)-2-(methylsulfonyl)acetamide] |
| 0.35 | 0.034 | Cc1nnc(CNC(=O)C(c2nc3cc(C)c(-c4ccc(N5CCNCC5)cc4)cc3s2)S(C)(=O)=O)o1 (stereo not drawn) [Example B84, N-((5-methyl-1,3,4-oxadiazol-2-yl)methyl)-2-(5-methyl-6-(4-(piperazin-1-yl)phenyl)-1,3-benzothiazol-2-yl)-2-(methylsulfonyl)acetamide] |
| 0.124 | 0.011 | Cc1nnc(CNC(=O)C(c2nc3cc(C)c(-c4ccc5c(c4)CCC(=O)N5)cc3s2)S(C)(=O)=O)o1 (stereo not drawn) [Example B85, N-((5-methyl-1,3,4-oxadiazol-2-yl)methyl)-2-(5-methyl-6-(2-oxo-1,2,3,4-tetrahydro-6-quinolinyl)-1,3-benzothiazol-2-yl)-2-(methylsulfonyl)acetamide] |
| 0.494 | < 0.01 | CS(=O)(=O)C(C(=O)NCCS(N)(=O)=O)c1nc2cc(-c3ccc(C(=O)N4CCOCC4)cc3)ccc2s1 (stereo not drawn) [Example B86, 2-(methylsulfonyl)-2-(5-(4-(4-morpholinylcarbonyl)phen-yl)-1,3-benzothiazol-2-yl)-N-(2-sulfamoylethyl)a-cetamide] |
| 0.0026 | 0.0005 | COc1ccc(-c2ccc3sc(C(C(=O)NCCS(N)(=O)=O)S(C)(=O)=O)nc3c2)cn1 (stereo not drawn) [Example B87, 2-(5-(6-methoxy-3-pyridinyl)-1,3-benzothiazol-2-yl)-2-(methylsulfonyl)-N-(2-sulfamoylethyl)acetamide] |
| 0.0022 | 0.0005 | COc1cc(-c2ccc3sc(C(C(=O)NCCS(N)(=O)=O)S(C)(=O)=O)nc3c2)ccn1 (stereo not drawn) [Example B88, 2-(5-(2-methoxy-4-pyridinyl)-1,3-benzothiazol-2-yl)-2-(methylsulfonyl)-N-(2-sulfamoylethyl)acetamide] |
| 0.07 | 0.0044 | CS(=O)(=O)C(C(=O)NCCS(N)(=O)=O)c1nc2cc(-c3cncnc3)ccc2s1 (stereo not drawn) [Example B89, 2-(methylsulfonyl)-2-(5-(5-pyrimidinyl)-1,3-benzothiazol-2-yl)-N-(2-sulfamoylethyl)acetamide] |
| 0.1 | < 0.01 | COCCn1cc(-c2ccc3sc(C(C(=O)NCCS(N)(=O)=O)S(C)(=O)=O)nc3c2)cn1 (stereo not drawn) [Example B90, 2-(5-(1-(2-methoxyethyl)-1H-pyrazol-4-yl)-1,3-benzothiazol-2-yl)-2-(methylsulfonyl)-N-(2-sulfamoylethyl)acetamide] |
| 1.8 | < 0.01 | CS(=O)(=O)C(C(=O)NCCS(N)(=O)=O)c1nc2cc(-c3cnn(CCN4CCOCC4)c3)ccc2s1 (stereo not drawn) [Example B91, 2-(methylsulfonyl)-2-(5-(1-(2-(4-morpholinyl)ethyl)-1H-pyrazol-4-yl)-1,3-benzothiazol-2-yl)-N-(2-sulfamoylethyl)acetamide] |
| < 0.01 | < 0.01 | CS(=O)(=O)C(C(=O)NCCS(N)(=O)=O)c1nc2cc(-c3ccccc3)ccc2s1 (stereo not drawn) [Example B92, 2-(methylsulfonyl)-2-(5-phenyl-1,3-benzothiazol-2-yl)-N-(2-sulfamoylethyl)a-cetamide] |
| 0.0071 | 0.0005 | COCCNC(=O)c1ccc(-c2ccc3sc(C(C(=O)NCCS(N)(=O)=O)S(C)(=O)=O)nc3c2)cc1 (stereo not drawn) [Example B93, N-(2-methoxyethyl)-4-(2-(1-(methylsulfonyl)-2-oxo-2-((2-sulfamoylethyl)a-mino)ethyl)-1,3-benzothiazol-5-yl)ben-zamide] |
| 0.123 | < 0.01 | CS(=O)(=O)C(C(=O)NCCS(N)(=O)=O)c1nc2cc(-c3ccc(C(=O)NCCO)cc3)ccc2s1 (stereo not drawn) [Example B94, N-(2-hydroxyethyl)-4-(2-(1-(methylsulfonyl)-2-oxo-2-((2-sulfamoylethyl)a-mino)ethyl)-1,3-benzothiazol-5-yl)ben-zamide] |
| 0.07 | < 0.01 | CS(=O)(=O)C(C(=O)NCCS(N)(=O)=O)c1nc2cc(-c3ccnc(F)c3)ccc2s1 (stereo not drawn) [Example B95, 2-[5-(2-fluoro-4-pyridinyl)-1,3-benzothiazol-2-yl]-2-(methylsulfonyl)-N-(2-sulfamoylethyl)acetamide] |
| 0.251 | 0.027 | Cc1nnc(CNC(=O)C(c2nc3cc(C)c(-c4ccc(C(=O)N5CCOCC5)cc4)cc3s2)S(=O)(=O)Cc2ccccc2)o1 (stereo not drawn) [Example B96, 2-(benzylsulfonyl)-2-(5-methyl-6-(4-(4-morpholinylcarbonyl)phen-yl)-1,3-benzothiazol-2-yl)-N-((5-methyl-1,3,4-oxadiazol-2-yl)methyl)a-cetamide] |
| 0.057 | 0.024 | COc1ccc(-c2cc3sc(C(C(=O)NCc4nnc(C)o4)S(=O)(=O)Cc4ccccc4)nc3cc2C)cn1 (stereo not drawn) [Example B97, 2-(benzylsulfonyl)-2-(6-(6-methoxy-3-pyridinyl)-5-methyl-1,3-benzothiazol-2-yl)-N-((5-methyl-1,3,4-oxadiazol-2-yl)methyl)a-cetamide] |
